Like-named read-outs stand apart in the source and are kept apart here. Bounds are passed on as bounds.

The conditions of data set [1]: cited from earlier work.
The test system of the next data set is Colon cancer HT29. Briefly: Cell proliferative activity (MTT / cck-8). It is filed as cell-based. Conditions: Homo sapiens, HT-29, read-out: Half-Inhibitory Concentration IC50 HT29.
Data set [2] concerns Human liver cancer cell HepG2. The experiment in a line: Cell proliferative activity (MTT / cck-8). In kind it is cell-based. As to the method: (§1) Tumor cell line A375: human melanoma cell; H460: lung adenocarcinoma cell; Hela: human cervical cancer cell; HepG2: human liver cancer cell; and SKOV-3: human ovarian cancer cell, were all purchased from ATCC and cultured to logarithmic phase according to the cultivation protocol recommended by ATCC. The cells in the logarithmic phase were plated onto a 96-well plate at 2000-3000 cells/well; in the case of adherent cells, the cells should be adherent to the wall. […] After that, the cell proliferative activity was determined by MTT assay for the tumor cells representing the solid tumor model and by cck-8 assay for the tumor cells representing the hematologic tumor model.

In data set [3] the test system is Multiple myeloma RPMI8226. The experiment in a line: Cell proliferative activity (MTT / cck-8). As to conditions: Homo sapiens, RPMI-8226, read-out: Half-Inhibitory Concentration IC50 RPMI8226. It is filed as cell-based. As to the method: as §1
Data set [4] concerns Human cervical cancer cell Hela. The experiment in a line: Cell proliferative activity (MTT / cck-8). In kind it is cell-based. As to the method: as §1
Data set [5] deals with Human lung cancer cell H460. Briefly: Cell proliferative activity (MTT / cck-8). It is filed as cell-based. As to the method:
as §1

Another data set relates to Leukemia MV4-11. Briefly: Cell proliferative activity (MTT / cck-8). Conditions: Homo sapiens, read-out: Half-Inhibitory Concentration IC50 MV4-11. It is filed as cell-based. As to the method: as §1
The subject of a further data set is Multiple myeloma U266. Briefly: Cell proliferative activity (MTT / cck-8). In kind it is cell-based. Conditions: Homo sapiens, U-266, read-out: Half-Inhibitory Concentration IC50 U266. As to the method: as §1
A further data set concerns Leukemia K562. Briefly: Cell proliferative activity (MTT / cck-8). In kind it is cell-based. Conditions: Homo sapiens, read-out: Half-Inhibitory Concentration IC50 K562. As to the method: as §1
The test system of data set [6] is Human ovarian cancer cell SKOV-3. The experiment in a line: Cell proliferative activity (MTT / cck-8). In kind it is cell-based. As to the method:
as §1

For the next data set, the system named is B-cell lymphoma Ramos. Briefly: Cell proliferative activity (MTT / cck-8). In kind it is cell-based. Conditions: Homo sapiens, read-out: Half-Inhibitory Concentration IC50 Ramos. As to the method: as §1
The next data set relates to Colon cancer HCT116. Briefly: Cell proliferative activity (MTT / cck-8). In kind it is cell-based. Conditions: Homo sapiens, HCT-116, read-out: Half-Inhibitory Concentration IC50 HCT116.
The next data set relates to Lung cancer A549. The experiment in a line: Cell proliferative activity (MTT / cck-8). As to conditions: Homo sapiens, read-out: Half-Inhibitory Concentration IC50 A549. In kind it is cell-based.
The next data set deals with HDAC10 (Homo sapiens, UniProt Q969S8). As to conditions: read-out: IC50 HDAC10; Table 4, Class IIb.
Chain of HDAC10 (Q969S8 whole entry): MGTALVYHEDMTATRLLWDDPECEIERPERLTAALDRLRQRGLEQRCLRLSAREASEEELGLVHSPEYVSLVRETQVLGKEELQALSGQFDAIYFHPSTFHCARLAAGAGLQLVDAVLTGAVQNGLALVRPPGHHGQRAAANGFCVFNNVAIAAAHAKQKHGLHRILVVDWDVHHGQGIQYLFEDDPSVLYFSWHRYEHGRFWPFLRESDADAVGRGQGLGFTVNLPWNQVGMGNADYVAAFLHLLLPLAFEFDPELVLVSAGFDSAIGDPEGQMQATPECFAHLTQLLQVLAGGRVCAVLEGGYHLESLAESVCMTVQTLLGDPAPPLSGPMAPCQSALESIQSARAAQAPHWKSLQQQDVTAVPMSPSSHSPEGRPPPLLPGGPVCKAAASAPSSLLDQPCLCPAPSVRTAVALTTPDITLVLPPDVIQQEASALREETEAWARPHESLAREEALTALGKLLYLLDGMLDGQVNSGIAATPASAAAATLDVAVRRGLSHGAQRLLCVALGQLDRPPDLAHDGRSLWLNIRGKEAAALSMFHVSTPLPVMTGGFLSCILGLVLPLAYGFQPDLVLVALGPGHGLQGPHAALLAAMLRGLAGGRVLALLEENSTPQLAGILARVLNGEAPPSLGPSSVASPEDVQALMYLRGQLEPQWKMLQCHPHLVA
The next data set has as its system Ovarian cancer A2780s. The experiment in a line: Cell proliferative activity (MTT / cck-8). In kind it is cell-based. As to conditions: Homo sapiens, read-out: Half-Inhibitory Concentration IC50 A2780s.
For a further data set, the system named is Ramos cells. Briefly: Therapeutic effect on the B-cell lymphoma Ramos subcutaneous tumor model. In kind it is in vivo, NOD/SCID mice. As to conditions: 40 mg/kg intragastrically once every other day, 6 times, vs solvent group.
For another data set, the system named is Breast cancer SKBR3. Briefly: Cell proliferative activity (MTT / cck-8). In kind it is cell-based. Conditions: Homo sapiens, SK-BR-3, read-out: Half-Inhibitory Concentration IC50 SKBR3.
The test system of the next data set is HBL-1 cells. Briefly: Therapeutic effect on the B-cell lymphoma HBL-1 subcutaneous tumor model. As to conditions: HBL-1 model, 40 mg/kg intragastrically once every other day, 9 times; vs solvent group. In kind it is in vivo, NOD/SCID mice.
In another data set the test system is Human melanoma A375. Briefly: Cell proliferative activity (MTT / cck-8). It is filed as cell-based. As to conditions: A-375, incubated for 96 hours, read-out: Half-Inhibitory Concentration IC50 Human melanoma A375. As to the method:
as §1

The target in another data set is T1, HDAC1 (Homo sapiens, UniProt Q13547).
T1 construct: purchased BPS Bioscience
T1 sequence (Q13547 whole entry): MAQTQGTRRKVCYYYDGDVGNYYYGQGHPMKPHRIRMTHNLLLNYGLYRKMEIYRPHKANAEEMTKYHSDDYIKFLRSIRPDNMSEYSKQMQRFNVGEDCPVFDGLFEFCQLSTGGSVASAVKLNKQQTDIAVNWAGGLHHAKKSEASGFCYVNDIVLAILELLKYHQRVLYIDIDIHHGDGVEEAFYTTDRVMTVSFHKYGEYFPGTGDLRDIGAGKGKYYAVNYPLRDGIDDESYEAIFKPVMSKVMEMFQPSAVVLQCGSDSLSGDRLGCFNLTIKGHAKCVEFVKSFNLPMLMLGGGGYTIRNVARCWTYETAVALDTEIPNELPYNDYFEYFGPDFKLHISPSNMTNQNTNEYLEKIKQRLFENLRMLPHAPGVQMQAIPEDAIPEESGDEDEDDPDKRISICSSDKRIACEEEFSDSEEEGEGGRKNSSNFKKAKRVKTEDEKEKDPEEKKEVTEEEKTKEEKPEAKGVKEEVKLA
Briefly: HDAC inhibitory activity, fluorescence-coupled acetylated peptide substrate assay (Lys-Ac-AMC). Conditions: Table 2. In kind it is biochemical.

A further data set deals with T2, HDAC8 (Homo sapiens, UniProt Q9BY41).
T2 sequence (Q9BY41 1-377): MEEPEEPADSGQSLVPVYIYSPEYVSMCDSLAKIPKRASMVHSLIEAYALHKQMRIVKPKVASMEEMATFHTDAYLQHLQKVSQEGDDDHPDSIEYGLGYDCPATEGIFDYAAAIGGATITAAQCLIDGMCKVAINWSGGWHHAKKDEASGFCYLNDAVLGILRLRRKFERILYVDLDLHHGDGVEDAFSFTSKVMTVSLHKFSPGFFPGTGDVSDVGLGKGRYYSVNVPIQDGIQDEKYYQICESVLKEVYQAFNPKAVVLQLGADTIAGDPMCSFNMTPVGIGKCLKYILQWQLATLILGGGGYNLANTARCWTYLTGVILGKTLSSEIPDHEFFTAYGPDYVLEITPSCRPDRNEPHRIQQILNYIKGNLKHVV
The experiment in a line: HDAC inhibitory activity, fluorescence-coupled acetylated peptide substrate assay. As to conditions: IC50 HDAC8, Table 2.

The next data set has as its system HCT116 cells. The experiment in a line: Therapeutic effect on the colon cancer HCT116 model (intravenous).
A further data set deals with T3, HDAC6 (Homo sapiens, UniProt Q9UBN7).
T3 sequence (Q9UBN7 1-1215): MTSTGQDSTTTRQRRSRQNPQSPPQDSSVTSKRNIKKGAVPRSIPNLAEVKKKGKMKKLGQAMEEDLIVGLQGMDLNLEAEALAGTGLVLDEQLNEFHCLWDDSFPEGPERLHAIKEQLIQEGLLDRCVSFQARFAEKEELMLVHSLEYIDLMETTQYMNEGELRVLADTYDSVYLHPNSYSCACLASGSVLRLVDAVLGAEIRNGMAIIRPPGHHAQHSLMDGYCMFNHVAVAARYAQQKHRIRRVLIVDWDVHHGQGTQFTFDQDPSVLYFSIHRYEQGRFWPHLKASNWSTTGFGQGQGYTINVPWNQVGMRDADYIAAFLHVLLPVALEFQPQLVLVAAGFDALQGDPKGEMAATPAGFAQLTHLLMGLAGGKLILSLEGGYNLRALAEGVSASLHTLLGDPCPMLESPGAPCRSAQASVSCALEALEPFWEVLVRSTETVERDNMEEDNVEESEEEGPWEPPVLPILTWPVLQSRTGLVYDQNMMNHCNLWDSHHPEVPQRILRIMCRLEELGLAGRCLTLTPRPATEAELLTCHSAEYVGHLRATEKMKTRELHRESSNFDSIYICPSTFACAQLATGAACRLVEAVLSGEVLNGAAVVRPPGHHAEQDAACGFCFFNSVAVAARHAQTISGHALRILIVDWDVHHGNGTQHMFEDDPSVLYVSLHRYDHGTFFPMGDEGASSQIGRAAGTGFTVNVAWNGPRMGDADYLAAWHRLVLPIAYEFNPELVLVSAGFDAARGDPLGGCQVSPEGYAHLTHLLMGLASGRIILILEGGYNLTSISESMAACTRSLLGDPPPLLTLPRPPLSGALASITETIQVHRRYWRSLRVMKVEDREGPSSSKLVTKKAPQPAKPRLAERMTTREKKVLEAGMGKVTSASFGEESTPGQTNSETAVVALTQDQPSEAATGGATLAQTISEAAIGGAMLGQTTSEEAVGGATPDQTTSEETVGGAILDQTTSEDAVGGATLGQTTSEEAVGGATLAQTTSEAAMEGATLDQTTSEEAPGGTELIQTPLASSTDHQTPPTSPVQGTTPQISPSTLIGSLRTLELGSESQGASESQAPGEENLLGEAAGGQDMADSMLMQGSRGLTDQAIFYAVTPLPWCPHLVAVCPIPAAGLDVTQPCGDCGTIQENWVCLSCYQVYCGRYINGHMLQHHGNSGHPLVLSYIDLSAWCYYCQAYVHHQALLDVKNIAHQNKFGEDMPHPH
The experiment in a line: HDAC inhibitory activity, fluorescence-coupled acetylated peptide substrate assay. As to conditions: Table 2. It is filed as biochemical.

In the next data set the test system is A2780s cells. As to conditions: A2780s model, 100 mg/kg intragastrically once every other day, 16 times.
For data set [7], the system named is acetylation level of HDAC substrate (Ac-α-tubulin, Ac-H3). Briefly: Western blot assay for detecting the level of acetylated proteins. It is filed as cell-based. Conditions: HCT116 cells (FIG. 3) or MV4-11 cells (FIG. 4). As to the method:
The compounds or the positive control compound were added into each group of cells already adherent to the walls (2×10^6 HCT116 cells or 5×10^6 MV4-11 cells) at a designed concentration. After treatment for 4 hours, trypsin was added for digestion, followed by collecting the cells. After washing with cold PBS twice, the cells were lysed by adding RIPA lysis solution (which was purchased from Beyotime, Art. No.: P0013B, adding 1 mM PMSF before use), allowing for lysis on ice for 30 minutes while vortexing at intervals. The lysate was subjected to ultrasonic treatment on an ice bath (ultrasonicated for 3 seconds and repeated 5 times for each group at an interval of 10 seconds). The supernatant was collected by centrifugation at 12,000 g for 20 min at 4° C. and then mixed the SDS-PAGE loading buffer (purchased from Beyotime, Art. No.: P0015F). The mixture was heated in boiling water for 5 minutes to obtain a protein sample. The protein concentration of the sample was quantified by BCA method. 20 […] total protein from each group was subjected to 15% SDS-PAGE electrophoresis, and 5μl of a pre-stained protein marker (purchased from Thermo, Art. No.: 26616) was loaded to an additional selective lane in order to compare protein molecular weights as well as to detect the transmembrane result. When the bromophenol blue bands ran close to the bottom of the gel, the electrophoresis was terminated and the proteins on the gel were transferred to a PVDF membrane at a pore size of 0.22 μm. After 1.5 hours of transmembrane at a constant current of 200 mA, the PVDF membrane was removed and blocked in 5% skimmed milk for 1 hour. After completion of blocking, the membrane was incubated with the primary antibody (Ac-H3 antibody was purchased from Santa Cruz, Art. No.: sc-56616; Ac-α-tubulin antibody was purchased from Santa Cruz, Art. No.: sc-23950) overnight at 4° C. and then washed with TBS/T for 10 minutes for 3 times. The membrane was incubated with the horseradish peroxidase-coupled secondary antibody at room temperature for 1 hour, and then washed with TBS/T for 10 minutes for 3 times. After washing with TBS for 5 minutes, the membrane was exposed and developed by using a film in the darkroom. The detected GAPDH protein was an internal reference protein (GAPDH antibody was purchased from ZSGB-Bio, Art. No.: TA-08).
A general note: A western blot detects proteins with antibodies after separation by electrophoresis.

Protocol for HDAC10: (§2) The HDAC inhibitory activity was determined by fluorescence-coupled acetylated peptide substrate assay (Lys-Ac-AMC). HDAC1 protein was purchased from BPS Bioscience, and the reaction buffer system was a modified tris(hydroxymethyl)aminomethane buffer (pH 7.0). The small molecule compounds of the present invention were prepared by being dissolved in 100% DMSO. HDAC was prepared in a buffer at a certain concentration as an enzyme solution; trypsin and fluorescent group 4-amino-7-coumarin coupled-acetylated peptide (Ac-peptide) substrate were prepared in a buffer at a certain concentration as a substrate solution. The compounds were added into the reaction wells in a 384-well plate at a designed concentration of 10 μM, 1 μM, 0.5 μM, 0.1 μM, 0.05 μM, 0.01 μM, 0.005 μM, 0.001 μM, and 0.00005 μM, respectively, and then 15 μl of the HDAC solution was added into the reaction wells (15 μl of blank buffer to the control well). […] The results were analyzed by GraphPad Prism software and IC50 values were calculated according to the formula: Y=Background Data+(Top Data−Background Data)/(1+10^((Log IC50−X) a curve slope)), where Y: the inhibition rate (%) and X: the concentration of the compound.
Protocol for HDAC6: as §2
Protocol for HDAC8: as §2

On to `Nc1ccccc1NC(=O)c1ccc(CNC(=O)OCc2cccnc2)cc1` [Entinostat], for which the “elimination half-life in human body” value in [1] (human, clinical trials) was approximately 100 h.
With `O=C(CCCCCCNC(=O)c1cnc(N(c2ccccc2)c2ccccc2)nc1)NO` [ACY-1215, reference compound], the IC50 in the data set with Colon cancer HT29 is more than 5 µM; in [2] (Liver cancer, Table 5, read-out: Half-Inhibitory Concentration IC50 HepG2), more than 5 µM; in data set [3], 1.47 ± 0.31 µM; in data set [4] (Cervical cancer, Table 5, read-out: Half-Inhibitory Concentration IC50 Hela), more than 5 µM; in data set [5] (NCI-H460, Lung cancer, Table 5, read-out: Half-Inhibitory Concentration IC50 H460) it was more than 5 µM; in the data set on Leukemia MV4-11 it was more than 5 µM. The IC50 with Multiple myeloma U266 is more than 5 µM; in the data set with Leukemia K562 it was more than 5 µM; in data set [6] (SK-OV-3, Ovarian cancer, Table 5, read-out: Half-Inhibitory Concentration IC50 SKOV-3), more than 5 µM; in the data set on B-cell lymphoma Ramos, more than 5 µM; in the data set on Colon cancer HCT116, more than 5 µM; in the data set on Lung cancer A549 it was more than 5 µM. The IC50 at HDAC10 was 0.194 ± 0.054 µM; in the data set with Ovarian cancer A2780s, more than 5 µM; in the data set on Breast cancer SKBR3 it was more than 5 µM. Moreover, the tumor inhibitory rate result with Ramos cells is “no inhibitory effects of tumor growth”; in the data set on HBL-1 cells it was 26.75%.
As for `COc1ccc(N(C)c2nc(C)nc3ccccc23)cc1OCC(=O)NO` [III-1, N-hydroxy-2-(2-methoxy-5-(methyl(2-methyl-4-quinazolinyl)amino)phenoxy) acetamide], the IC50 in data set [2] (incubated for 96 hours, read-out: Half-Inhibitory Concentration IC50 Human liver cancer cell HepG2) is less than 0.01 µM; in the data set with Human melanoma A375, 0.01 to 0.1 µM; in data set [4] (incubated for 96 hours, read-out: Half-Inhibitory Concentration IC50 Human cervical cancer cell Hela), less than 0.01 µM; in data set [5] (NCI-H460, incubated for 96 hours, read-out: Half-Inhibitory Concentration IC50 Human lung cancer cell H460), less than 0.01 µM; in [6] (SK-OV-3, incubated for 96 hours, read-out: Half-Inhibitory Concentration IC50 Human ovarian cancer cell SKOV-3), less than 0.01 µM; against HDAC1, more than 1 µM. Besides, the IC50 on HDAC8 and against HDAC6 was more than 1 µM throughout. The “survival time of mice” value in the data set on HCT116 cells (10 mg/kg intravenously once every other day, 9 times, vs blank control, P<0.01) is “significantly prolonged the survival time of mice”. For the same compound, in the data set with HCT116 cells (10 mg/kg intravenously, SAHA 50 mg/kg intraperitoneally), the “effect prolonging the survival time compared with positive control group” value was “superior to that of the positive control group”.
Turning to FK228, in [1] (clinical data), the “incidence of medication-related adverse reactions above Phase III” value was “up to 66%” and the toxic side effects entry is given as “cardiotoxicity”.
For `O=C(CCCCCCC(=O)Nc1ccccc1)NO` [SAHA, reference compound], the toxic side effects entry in data set [1] (clinical data) was “thrombosis and neurotoxicity”. For the same compound, the “death of mice during the experiment” value in the data set on A2780s cells is reported as “one mouse died”. In data set [7], the “acetylation of H3 (Ac-H3)” value was “up-regulate acetylation of tubulin and H3”; the “acetylation of α-tubulin” value was “up-regulate acetylation of tubulin and H3”.

(Values after US10532053B2, “Histone deacetylase inhibitor, and preparation method and use thereof” (GUANGDONG ZHONGSHENG PHARMACEUTICAL CO., LTD, priority 2015, dated 2020).)
